Experimental data published in patent publication US4707488A, “Dopamine-β-hydroxylase inhibitors and use thereof” (Smithkline Beckman Corporation, priority 1985, dated 1987).
Like-named read-outs stand apart in the source and are kept apart here.

Columns and labels:
DBH = molecular target: T1, DBH (Bos taurus, UniProt P15101); experiment: in vitro DBH inhibition, conversion of tyramine to octopamine; type: biochemical
T1 sequence (P15101 1-610): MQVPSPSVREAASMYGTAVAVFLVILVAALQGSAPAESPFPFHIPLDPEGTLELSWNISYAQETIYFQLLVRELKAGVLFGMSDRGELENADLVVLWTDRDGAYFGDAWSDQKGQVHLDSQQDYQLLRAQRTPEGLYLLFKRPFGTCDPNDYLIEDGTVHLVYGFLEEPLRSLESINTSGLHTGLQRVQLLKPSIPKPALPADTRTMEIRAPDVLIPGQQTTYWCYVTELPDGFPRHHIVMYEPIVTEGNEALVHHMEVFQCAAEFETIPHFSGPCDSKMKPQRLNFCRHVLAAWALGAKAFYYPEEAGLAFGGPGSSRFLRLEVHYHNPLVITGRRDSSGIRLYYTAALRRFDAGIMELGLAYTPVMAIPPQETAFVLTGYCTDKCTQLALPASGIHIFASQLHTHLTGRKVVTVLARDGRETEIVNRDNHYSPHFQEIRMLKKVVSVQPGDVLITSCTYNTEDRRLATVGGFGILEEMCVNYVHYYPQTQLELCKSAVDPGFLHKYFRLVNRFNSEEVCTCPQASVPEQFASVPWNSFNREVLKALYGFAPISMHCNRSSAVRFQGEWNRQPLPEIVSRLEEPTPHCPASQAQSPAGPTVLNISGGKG
Method: Compounds of the invention and other compounds useful in the method of the invention were screened for in vitro DBH inhibition by a standard procedure for assaying conversion of tyramine to octopamine in the presence of DBH. Octopamine was assayed following sodium periodate oxidation to p-hydroxybenzaldehyde by measuring spectrophotometric absorbance at 330 nm. Inhibition is given in molar concentration of compound at which DBH activity was halved (IC50). Melting points (mp) are given in °C. By this procedure fusaric acid has an IC50 of about 8×10^-7.

[1] = mean arterial blood pressure, indwelling cannulae inserted into the tail artery; type: in vivo, Spontaneously hypertensive rats; conditions: 50 mg/kg, ip
Method: (§1) Various compounds of the invention were tested for their effects in vivo on peripheral dopamine (DA) and norepinephrine (NE) levels substantially by the procedure of DaPrada and Zurcher, Life Sci., 19, 1161, (1976). Spontaneously hypertensive rats were dosed twice, the second dose being about 18 hours after the first, and were sacrificed about 2 hours after the second dose.
Further, the same rats were dosed with a suspension or solution at a dose of 50 mg/kg of test compound i.p. and mean arterial blood pressure was determined with indwelling cannulae inserted into the tail artery.

[2] = Teresawa et al., Japan Cir. J. 35, 339 (1971); cited from earlier work
[3] = system: peripheral dopamine (DA) and norepinephrine (NE) levels; experiment: in vivo effects on peripheral dopamine (DA) and norepinephrine (NE) levels; set-up: species or system Spontaneously hypertensive rats; conditions: dosed twice about 18 hours apart, sacrificed about 2 hours after second dose
Method: as §1

[4] = octopamine assayed after periodate oxidation, absorbance at 330 nm, read-out: IC50 (molar concentration of compound at which DBH activity was halved)

| SMILES | IC50 (DBH; [4]) | other results |
| --- | --- | --- |
| Sc1nnnn1Cc1ccccc1 [Example 6, 1-Benzyl-5-mercaptotetrazole] | 13 µM | reduction in mean arterial pressure [1]: significant reduction in mean arterial pressure |
| COc1ccc(Cn2nnnc2S)cc1 [Example 4, 1-(4-Methoxybenzyl)-5-mercaptotetrazole] | 15 µM | – |
| CCCCc1ccc(C(=O)O)nc1 [Fusaric acid, fusaric acid, reference compound] | – | hepatotoxicity [2]: hepatotoxic; IC50 (DBH): ~0.8 µM |
| Sc1nnnn1Cc1cc(Cl)cc(Cl)c1 [Example 2, 1-(3,5-Dichlorobenzyl)-5-mercaptotetrazole] | 1 µM | DA/NE Ratio [3]: 0.053 ± 0.0035; DA ([3]; micrograms per gram of tissue): 0.360 ± 0.015 µg/g; NE ([3]; micrograms per gram of tissue): 6.838 ± 0.257 µg/g; reduction in mean arterial pressure [1]: significant reduction in mean arterial pressure |
| Oc1ccc(CCCn2nnnc2S)cc1 [Example 11, 1-(3-(4-Hydroxyphenyl)propyl)-5-mercaptotetrazole] | 0.79 µM | – |
| Fc1cc(F)cc(CCCn2nnnc2S)c1 [Example 7, 1-(3-(3,5-Difluorophenyl)propyl)-5-mercaptotetrazole] | 0.35 µM | – |
| Oc1c(F)cc(CCCn2nnnc2S)cc1F [Example 12, 1-(3-(3,5-Difluoro-4-hydroxyphenyl)propyl)-5-mercaptotetrazole] | 0.08 µM | – |
| Sc1nnnn1CCCc1cc(Cl)cc(Cl)c1 [Example 9, 1-(3-(3,5-Dichlorophenyl)propyl)-5-mercaptotetrazole] | 0.39 µM | – |
| Sc1nnnn1Cc1c(Cl)cccc1Cl [Example 3, 1-(2,6-Dichlorobenzyl)-5-mercaptotetrazole] | 9.2 µM | – |
| Fc1cc(F)cc(Cn2nnnc2S)c1 [Example 1, 1-(3,5-Difluorobenzyl)-5-mercaptotetrazole] | 1.5 µM | – |
| Sc1nnnn1CCCc1ccccc1 [Example 5, 1-(3-Phenylpropyl)-5-mercaptotetrazole] | 2.4 µM | – |
